Assay results published in patent US9180128B2, “Stable pharmaceutical compositions of 5,10-methylene tetrahydrofolate” (MERCK & CIE, priority 2003, dated 2015).
Where two headings read alike, the source gives them in different places.

Tests used:
[1] = physiological common salt solution, +25° C, cited from earlier work
[2] = Storage stability of untreated reference sample; type: physicochemical; settings: storage at +25° C

Compound | % relative stability ([1]; with the exclusion of air, 0 hours) | % relative stability ([1]; with the exclusion of air, 4.0 hours) | % relative stability ([1]; with the exclusion of air, 24.0 hours) | % relative stability ([1]; with the exclusion of air, 26.0 hours) | % relative stability ([1]; with the exclusion of air, 48.0 hours) | % relative stability ([1]; without the exclusion of air, 0 hours) | % relative stability ([1]; without the exclusion of air, 4.0 hours) | % relative stability ([1]; without the exclusion of air, 24.0 hours) | % relative stability ([1]; without the exclusion of air, 26.0 hours) | % relative stability ([1]; without the exclusion of air, 48.0 hours) | % relative stability ([2]; 0 months) | % relative stability ([2]; 0.5 months) | % relative stability ([2]; 1.0 months) | % relative stability ([2]; 1.75 months) | % relative stability ([2]; 2.5 months) | % relative stability ([2]; 4.5 months) | % relative stability ([2]; 9.2 months) | % relative stability ([2]; 19.0 months)
Nc1nc2c(c(=O)[nH]1)N1CN(c3ccc(C(=O)N[C@@H](CCC(=O)[O-])C(=O)O)cc3)C[C@H]1CN2.Nc1nc2c(c(=O)[nH]1)N1CN(c3ccc(C(=O)N[C@@H](CCC(=O)[O-])C(=O)O)cc3)C[C@H]1CN2.[Ca+2] [calcium salt of 5,10-methylene-(6R,S)-tetrahydrofolic acid] | 100.0% | 58.0% | 38.0% | 18.0% | 8.0% | 100.0% | 84% | 12.0% | 8.0% | 6.0% |  |  |  |  |  |  |  | 
Nc1nc2c(c(=O)[nH]1)N1CN(c3ccc(C(=O)N[C@@H](CCC(=O)[O-])C(=O)O)cc3)C[C@H]1CN2.Nc1nc2c(c(=O)[nH]1)N1CN(c3ccc(C(=O)N[C@@H](CCC(=O)[O-])C(=O)O)cc3)C[C@H]1CN2.[Ca+2] [Co 751, calcium salt of 5,10-methylene-(6R)-tetrahydrofolic acid] |  |  |  |  |  |  |  |  |  |  | 100.0% | 92.3% | 83.4% | 77.2% | 71.9% | 61.5% | 49.1% | 43.0%
